This note sets out measurements from patent US20170314033A1, “HERBICIDE-RESISTANT TARAXACUM KOK-SAGHYZ AND TARAXACUM BREVICORNICULATUM” (Ohio State Innovation Foundation, priority 2016, published 2017).

The subject of assay [1] is transgenic herbicide-resistant rubber-producing dandelions expressing the bar gene. The experiment in a line: glufosinate treatment of mature transgenic (bar gene) plants. It counts as in vivo, Taraxacum kok-saghyz and Taracum brevicorniculatum. The following applies: for survival rate: formulated under the brand BASTA, mature transgenic plants. The text has this: Applicants show the successful generation of rubber-producing dandelions species, which display resistance to broad leaf herbicide glufosinate. Using similar methods as described in Example 1, transgenic plants were generated using Agrobacterium tumafaciens-mediated transformation of leaf discs or root fragments, followed by regeneration of transgenic plants, which were then acclimated and transferred to pots within greenhouses. The bar gene, was expressed singly or in combination with other genes of interest in two rubber-producing dandelion species, Taraxacum kok-saghyz and Taracum brevicorniculatum. Table 1 describes the list of gene constructs used for the generation of transgenic herbicide-resistant dandelions.
Confirmation of a transgenic event was validated by PCR and resistance confirmed through treatment of mature transgenic plants with varying doses of glufosinate (e.g., 25 mg/L, 50 mg/L, 100 mg/L, 200 mg/L, etc.) formulated under the brand BASTA®. Treatment of plants with glufosinate at 25 mg/L yielded a 100% survival rate, 50 mg/L yielded a 50% survival rate, 150 mg/L yielded a 100% survival rate, and 200 mg/L yielded a 50% survival rate.

In assay [2] the test system is wild-type plants (dandelions). The experiment in a line: glufosinate exposure of wild-type dandelions. As to conditions: FIG. 11. It counts as in vivo. The source says:
FIG. 11: Comparison of wild-type dandelions and exemplary herbicide-resistant rubber-producing dandelions after exposure to herbicide.

For the next assay, the system named is non-transgenic TB. The experiment in a line: kanamycin selection, elimination of non-transgenic TB. It counts as in vivo, T. brevicorniculatum. The following applies: ½ MS medium, data not shown. On the procedure: (§1) Roots then were blotted dry on filter paper and transferred to co-culture medium (solid 1⁄2 MS medium with 200 μm acetosyringone). After 3 days of co-culture with agrobacteria, root fragments were washed sequentially with water and liquid 1⁄2 MS medium with 400 mg L^-1 Timentin, and then transferred to solid 1⁄2 MS medium with 400 mg L^-1 Timentin. […] After 3 weeks further selection, transgene events were validated in selected plants. Root fragments of TK and TB were also inoculated with A. rhizogenes […] wild type using the same method. After recovery, root fragments were transferred to 1⁄2 MS medium with 400 mg L^-1 Timentin for regeneration. Approximately 30 root fragments were used for each replicate and three replicates were used for each treatment. […] Transgene presence was validated by PCR analysis (FIGS. 5A and B) and transgene expression at the transcription level was confirmed by RT-PCR (FIGS. 6A and B) using leaf tissue.

In another assay the test system is non-transgenic TK. The experiment in a line: kanamycin selection, elimination of non-transgenic TK. It counts as in vivo, Taraxacum kok-saghyz. As to conditions: ½ MS medium, data not shown. Here is the method:
as §1

As for `CP(=O)(O)CCC(N)C(=O)O` (stereo not drawn) [glufosinate], the “herbicide tolerance after exposure to glufosinate” value in assay [1] (exemplary dandelions of the invention, FIG. 11) was “varying degrees herbicide tolerance”. In assay [1] (exemplary plant of the invention, FIGS. 9-10), the “injury as a result of exposure to glufosinate” value was “little to no injury”. Moreover, the survival rate in assay [1] (glufosinate at 25 mg/L) came out at 100%; in assay [1] (glufosinate at 50 mg/L) it was 50%; in assay [1] (glufosinate at 150 mg/L), 100%; in assay [1] (glufosinate at 200 mg/L) it was 50%. Further, the “injury when exposed to glufosinate” value in assay [2] is listed as “significant injury and/or death”.
As to `NC[C@H]1O[C@H](O[C@H]2[C@H](O)[C@@H](O[C@H]3O[C@H](CO)[C@@H](O)[C@H](N)[C@H]3O)[C@H](N)C[C@@H]2N)[C@H](O)[C@@H](O)[C@@H]1O` [kanamycin], the “kanamycin concentration effective at eliminating non-transgenic plants” value in the assay with non-transgenic TB is 20 mg/L; with non-transgenic TK, 10 mg/L.
